Changes are numbered by the printed parent chain.
Experiments:
Type in all cases: binding
TTN5 (TITAN 5) [1] = molecular target: T1, TTN5 (TITAN 5) (Arabidopsis thaliana, UniProt Q9ZPX1); assay: pull-down of GST-TTN5, bound nucleotide by HPLC; conditions: GST fusion; excess free GppNHp; single experiment
T1 construct: gene ARL2
T1 sequence (Q9ZPX1 1-185 limits assumed): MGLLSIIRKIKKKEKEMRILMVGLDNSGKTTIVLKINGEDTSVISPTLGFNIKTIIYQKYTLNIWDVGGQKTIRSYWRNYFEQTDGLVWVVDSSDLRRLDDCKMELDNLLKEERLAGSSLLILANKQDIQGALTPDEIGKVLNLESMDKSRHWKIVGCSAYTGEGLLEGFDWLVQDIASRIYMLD

TTN5 (TITAN 5) [2] = molecular target: T2, TTN5 (TITAN 5) (Arabidopsis thaliana, UniProt Q9ZPX1, T30N); assay: stopped-flow fluorimetry, koff/kon
T2 construct: gene ARL2
T2 sequence (Q9ZPX1 1-185 T30N limits assumed): T1 sequence (Q9ZPX1 1-185 limits assumed) with T30N

TTN5 (TITAN 5) [3] = molecular target: T3, TTN5 (TITAN 5) (Arabidopsis thaliana, UniProt Q9ZPX1, Q70L); assay: stopped-flow fluorimetry, koff/kon
T3 construct: gene ARL2
T3 sequence (Q9ZPX1 1-185 Q70L limits assumed): T1 sequence (Q9ZPX1 1-185 limits assumed) with Q70L

TTN5 (TITAN 5) [4] = molecular target: T1, TTN5 (TITAN 5); assay: stopped-flow fluorimetry, koff/kon

Nc1nc2c(ncn2[C@@H]2O[C@H](COP(=O)(O)OP(=O)(O)NP(=O)(O)O)[C@@H](O)[C@H]2O)c(=O)[nH]1 [GppNHp]
pull-down of GST-TTN5, bound nucleotide by HPLC (TTN5 (TITAN 5) [1]): Isolated GST–TTN5 bound to increasing amounts of GppNHp

CNc1ccccc1C(=O)O[C@H]1C[C@H](n2cnc3c(=O)[nH]c(N)nc32)O[C@@H]1COP(=O)(O)OP(=O)(O)O [mdGDP, 2-deoxy-3-O-N-methylanthraniloyl GDP]
Kd (TTN5 (TITAN 5) [2]): 3090 nM | Kd (TTN5 (TITAN 5) [3]): 61 nM | Kd (TTN5 (TITAN 5) [4]): 267 nM

— paper PMC11361645, “Characterization of the small Arabidopsis thaliana GTPase and ADP-ribosylation factor-like 2 protein TITAN 5” (Journal of Cell Science, 2024)
